Experimental data taken from the NIST ThermoML archive (doi:10.1021/acs.jced.6b00178).

Assay: xn = mol fraction of the nth substance listed
Settings: 100 kPa, Liquid; for viscosity: Concentric cylinders viscometry; for mass density: Vibrating tube method

CC(=O)[O-].CCCCn1cc[n+](C)c1 [1-butyl-3-methylimidazolium acetate] + CCCC[n+]1ccn(C)c1.O=S(=O)([N-]S(=O)(=O)C(F)(F)F)C(F)(F)F
Settings	mass density, x2 = 0 [kg/m3]	mass density, x2 = 0.25 [kg/m3]	mass density, x2 = 0.498 [kg/m3]	mass density, x2 = 0.749 [kg/m3]	viscosity, x2 = 0 [mPa·s]	viscosity, x2 = 0.25 [mPa·s]	viscosity, x2 = 0.498 [mPa·s]	viscosity, x2 = 0.749 [mPa·s]
283.15 K	1062.7	1193.2	1296.5	1381.4	1013.4	577.38	310.72	175.1
288.15 K	1059.4	1189.4	1292.2	1376.8	645.6	385.58	220.24	129.87
293.15 K	1056	1185.6	1288	1372.3	421.35	265.43	159.18	101.85
298.15 K	1052.8	1181.9	1283.8	1367.8	292.57	189.58	119.72	76.32
303.15 K	1049.7	1178.3	1279.7	1363.3	206.68	138.72	91.38	60.27
308.15 K	1046.6	1174.7	1275.7	1358.8	150.08	104	71.14	48.44
313.15 K	1043.5	1171.1	1271.6	1354.3	110.79	79.57	56.47	40.34
318.15 K	1040.5	1167.5	1267.5	1349.9	85.03	62.28	45.44	32.7
323.15 K	1037.5	1163.9	1263.5	1345.4	66.07	49.57	37.16	27.36
328.15 K	1034.5	1160.3	1259.4	1341	52.29	40.09	30.8	23.18
333.15 K	1031.5	1156.8	1255.4	1336.6	42.29	33.14	26.09	20.11
338.15 K	1028.5	1153.2	1251.4	1332.3	34.38	27.38	21.93	17.14
343.15 K	1025.6	1149.7	1247.5	1327.9	28.48	23.05	18.79	14.96
348.15 K	1022.6	1146.1	1243.5	1323.6	23.88	19.63	16.25	13.13
353.15 K	1019.7	1142.6	1239.6	1319.4	20.63	17.21	14.49	11.89
358.15 K	1016.7	1139.1	1235.7	1315.1	17.35	14.64	12.45	10.35
363.15 K	1013.9	1135.6	1231.8	1310.9	15	12.81	11.02	9.272
